In general, NOAEL refers to the highest dose or exposure tested at which no adverse effect was seen.

Consider one compound from EPA's ToxValDB 9.5 (doi:10.2903/j.efsa.2008.127r).

One data set concerns Apis mellifera. The conditions noted are these: acute, mortality.
A further data set relates to Bibionidae. Conditions: chronic/long-term; duration: 27 days.
A further data set has as its system Daphnia magna. Conditions: chronic/long-term; duration: 21 days; reproduction.
In another data set the test system is Folsomia candida. The conditions noted are these: chronic/long-term; duration: 28 days.

Converted amounts (≈) assume the structure as drawn.

With `CCCCN(CC)c1c([N+](=O)[O-])cc(C(F)(F)F)cc1[N+](=O)[O-]` [Benfluralin], the NOEC in the data set with Anas platyrhynchos (reproductive) came to 49.3 mg/kg-day; in the data set with Bibionidae, 0.231 mg/L; in the data set with Colinus virginianus (reproduction developmental), 8.6 mg/kg-day; with Daphnia magna, 0.0155 mg/L; in the data set with Folsomia candida, 5.5 mg/kg; in the data set on Oncorhynchus mykiss (chronic/long-term, duration: 49 days, growth) it was 0.0019 mg/L. In the data set with Tagia sp. (chronic/long-term, duration: 8 weeks), the NOEC was 30.8 mg/kg. Also, the LC50 is > 793 mg/kg-day with Anas platyrhynchos (short-term, oral, feed, mortality); > 909 mg/kg-day with Colinus virginianus (acute, oral, diet, mortality); 0.081 mg/L (≈ 0.242 µM) in the data set on Oncorhynchus mykiss (acute, duration: 96 hours, mortality); > 1000 mg/kg with Tagia sp. (acute, duration: 14 days, mortality). For the same compound, the LD50 with Apis mellifera (dermal) was > 100 µg/piece; in the data set on Apis mellifera (oral, unspecified), > 111 µg/piece; in the data set with Colinus virginianus (acute, oral, mortality), > 2000 mg/kg-day; with Rattus norvegicus (acute, oral, mortality), > 5000 mg/kg-day. For the same compound, the no observed adverse effect level (NOAEL) in the data set on Rattus norvegicus (chronic, duration: 2 years, histopathology: nonneoplastic) worked out at 0.5 mg/kg-day; in the data set on Rattus norvegicus (reproduction developmental, body weight), 5.5 mg/kg-day; with Rattus norvegicus (subchronic, duration: 90 days, oral, histopathology: nonneoplastic) it was 17 mg/kg-day.
